23 compounds from ChEMBL document CHEMBL1135324, “Quaternary salts of E2020 analogues as acetylcholinesterase inhibitors for the reversal of neuromuscular block” (Bioorg Med Chem Lett, 2002) can be followed below.

Series [1] in a line: Tested for water solubility of the compound. Format: ADME. The settings on record: read-out: S.
Series [2] concerns the target T1, Acetylcholinesterase (Homo sapiens, UniProt P22303).
Series [3] addresses T1, Acetylcholinesterase. The source holds these as a separate data set.
Description: In vitro reversal of vecuronium-induced neuromuscular block in guinea pig hemi-diaphragm.
Series [4] relates to Felis catus. Put plainly: Mean arterial pressure change was detected in anaesthetised cats on administration of the compound. Type of series: functional, Artery.
The subject of series [5] is Felis catus. Description: Change in response to vagal stimulation was detected in anaesthetised cats on administration of the compound. Type of series: functional.
In series [6] the test system is Felis catus. Description: Effective dose required for the reversal of vecuronium-induced neuromuscular block in-vivo in Chloaralose anaesthetised cats. Format: functional.
In series [7] the test system is Felis catus. Put plainly: Maximum reversal of vecuronium-induced neuromuscular block in-vivo in anaesthetised cats. Format: functional.
For series [8], the system named is Felis catus. Put plainly: Change in heart rate was detected in anaesthetised cats on administration of the compound. Type of series: functional.
The subject of series [9] is Felis catus. Description: Maximum reversal of vecuronium-induced neuromuscular block in-vivo in anaesthetised cats at 1.28 umol/kg. Format: functional.
Series [10] has as its target T1, Acetylcholinesterase. Description: In vitro inhibition of human recombinant AChE.

T1 sequence (P22303 whole entry): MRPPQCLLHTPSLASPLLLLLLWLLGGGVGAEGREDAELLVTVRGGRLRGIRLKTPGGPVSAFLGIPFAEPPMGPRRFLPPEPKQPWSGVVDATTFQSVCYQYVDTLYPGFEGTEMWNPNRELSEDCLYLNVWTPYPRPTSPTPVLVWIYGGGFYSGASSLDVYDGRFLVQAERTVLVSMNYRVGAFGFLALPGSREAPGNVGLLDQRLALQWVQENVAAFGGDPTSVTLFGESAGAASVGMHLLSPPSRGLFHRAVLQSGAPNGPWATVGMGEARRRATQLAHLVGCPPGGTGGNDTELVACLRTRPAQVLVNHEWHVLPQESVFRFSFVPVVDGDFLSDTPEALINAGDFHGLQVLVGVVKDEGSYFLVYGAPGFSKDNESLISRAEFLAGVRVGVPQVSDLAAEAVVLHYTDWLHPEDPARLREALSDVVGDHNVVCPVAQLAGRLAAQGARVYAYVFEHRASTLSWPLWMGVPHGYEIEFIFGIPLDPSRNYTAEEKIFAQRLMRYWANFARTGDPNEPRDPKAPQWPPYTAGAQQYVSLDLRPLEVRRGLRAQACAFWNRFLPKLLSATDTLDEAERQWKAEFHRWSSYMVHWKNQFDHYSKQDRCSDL

As usually defined, the IC50 is the concentration that inhibits the measured activity by half. By EC50 is commonly meant the concentration giving half of the maximal effect. Turning to `C[N+]1(Cc2ccccc2)CCC(CCC(=O)c2ccc3c(c2)OCO3)CC1` (configuration not stated), the solubility in [1] was determined as 500 µg/mL. At Acetylcholinesterase [2], this compound came in with an IC50 of 240 nM. The compound further registered an EC50 on Acetylcholinesterase [3] of 1700 nM.
In the case of `COc1cc2c(cc1OC)C(=O)C(C(O)C1CC[N+](Cc3ccccc3)(Cc3ccccc3)CC1)C2` (configuration not stated), a half-maximal effect on Acetylcholinesterase [3] (EC50) was put at 43500 nM.
As for `C[N+]1(Cc2ccccc2)CCC(CCC(=O)c2ccc3c(c2)CCCCO3)CC1` (configuration not stated), in series [1], the solubility was determined as 5000 µg/mL. The compound further had an IC50 at Acetylcholinesterase [2] of 139 nM.
Take `COc1cc2c(cc1OC)C(=O)[C@@H]([C@@H](O)C1CC[N+](C)(Cc3ccccc3)CC1)C2` (some centres not stated): the response on Acetylcholinesterase [3] was half-maximal at 2700 nM (EC50).
As usually defined, the ED50 is the midpoint of the dose-response relation. For the compound `COc1cc2c(cc1OC)C(=O)C(CC1CC[N+](C)(Cc3ccccc3)CC1)C2` (configuration not stated), the MAP in the series with Felis catus [4] was -22 delta %. Moreover, the Vagus in the series with Felis catus [5] is reported as 37 delta %. Besides, the ED50 in the series on Felis catus [6] was approximately 0.06 µmol/kg. For the same compound, the Max rev in the series with Felis catus [7] is given as 131%. For the same compound, the HR in the series with Felis catus [8] is 11 delta %. Also, half-maximal inhibition against Acetylcholinesterase [2] (IC50) was put at 25 nM. Further, the EC50 at Acetylcholinesterase [3] was 100 nM.
Regarding `C[N+]1(Cc2ccccc2)CCC(CCC(=O)c2ccc3c(c2)NCCCC3)CC1` (configuration not stated), in the series on Felis catus [4], the MAP is -6 delta %. In addition, the Vagus in the series with Felis catus [5] was 10 delta %. For the same compound, the 50% effective dose (ED50) with Felis catus [6] stood at 0.15 µmol/kg. For the same compound, the Max rev in the series with Felis catus [7] is on record as 140%. For the same compound, the HR in the series with Felis catus [8] is on record as 4 delta %. On Acetylcholinesterase [2], the half-maximal inhibitory concentration (IC50) was less than 500 nM. At Acetylcholinesterase [3], this compound displayed an EC50 of 331 nM.
As for `COc1cc2cc(C(=O)CCC3CC[N+](C)(Cc4ccccc4)CC3)n(C)c2cc1OC` (configuration not stated), in series [1], the solubility is 1200 µg/mL. In addition, at Acetylcholinesterase [2], the IC50 was 120 nM. For the same compound, at Acetylcholinesterase [3], the EC50 was 1600 nM.
In the case of `CC1=CC2Cc3[nH]c(=O)ccc3C3(C1)C2CCCN3C` (configuration not stated), at Acetylcholinesterase [2], the IC50 is more than 100000 nM. The same compound returned a 50% effective concentration (EC50) at Acetylcholinesterase [3] of more than 10000 nM.
`COc1ccc2c3c1OC1C[C@@H](O)C=C[C@@]31CC[N+](C)(C)C2` (some centres not stated): the MAP in the series on Felis catus [4] worked out at 16 delta %. This compound registered a Vagus in the series on Felis catus [5] of 80 delta %. For the same compound, the ED50 with Felis catus [6] turned out to be 0.1 µmol/kg. Further, the Max rev in the series on Felis catus [7] came out at 130%. In the series on Felis catus [8], the HR is recorded as -5 delta %. Also, on Acetylcholinesterase [2], the IC50 is approximately 500 nM. The compound also yielded an EC50 on Acetylcholinesterase [3] of 630 nM.
For `C[N+]1(Cc2ccccc2)CCC(CCC(=O)c2ccc3c(c2)OCCO3)CC1` (configuration not stated), the solubility in series [1] is less than 500 µg/mL. On Acetylcholinesterase [2], this compound showed a half-maximal inhibitory concentration (IC50) of 100 nM. This compound also yielded an EC50 on Acetylcholinesterase [3] of more than 3000 nM.
In the case of `C[N@+]1(Cc2ccccc2)CC[C@H](CCC(=O)c2ccc3c(c2)CCO3)CC1`, in [1], the solubility was more than 10000 µg/mL. Half-maximal inhibition at Acetylcholinesterase [2] (IC50) required 66 nM.
For the compound `COc1cc2c(cc1OC)C(=O)/C(=C/c1cc[n+](Cc3ccccc3)cc1)C2`, the EC50 at Acetylcholinesterase [3] worked out at 12 nM.
Take `Cc1cc(C(=O)CCC2CC[N+](C)(Cc3ccccc3)CC2)nn1-c1ccccc1` (configuration not stated): the solubility in [1] is 2000 µg/mL. On Acetylcholinesterase [2], this compound displayed an IC50 of 22 nM. Also, the 50% effective concentration (EC50) at Acetylcholinesterase [3] amounted to 430 nM.
On the same counts, the results for `COc1cc2cc(C(=O)CCC3CC[N+](C)(Cc4ccccc4)CC3)sc2cc1OC` (configuration not stated) are 2000 µg/mL, 8 nM and 19 nM.
In the same order, the values of `C[N+]1(Cc2ccccc2)CCC(CCC(=O)c2ccc3c(c2)CCO3)CC1` (configuration not stated) are 1500 µg/mL, 17 nM and 90 nM.
For `COc1cc2c(cc1OC)C(=O)[C@@H]([C@H](O)C1CC[N+](C)(Cc3ccccc3)CC1)C2` (some centres not stated), the 50% effective concentration (EC50) on Acetylcholinesterase [3] turned out to be 890 nM.
On the same count and under the same terms, as for `COc1cc2c(cc1OC)C(=O)C(Cc1cc[n+](Cc3ccccc3)cc1)C2` (configuration not stated), the figure is 100 nM.
For the compound `COc1ccc2cc(C(=O)CCC3CC[N+](C)(Cc4ccccc4)CC3)ccc2c1` (configuration not stated), the solubility in series [1] was less than 1000 µg/mL. Also, on Acetylcholinesterase [2], the IC50 stood at 50 nM. In addition, the concentration for a half-maximal effect (EC50) on Acetylcholinesterase [3] amounted to 530 nM.
For `COc1cc2c(cc1OC)C(=O)C(C(O)C1CC[N+](C)(Cc3ccccc3)CC1)C2` (configuration not stated), the MAP in the series with Felis catus [4] is reported as -22 delta %. Also, in the series on Felis catus [5], the Vagus was 18 delta %. Also, the 50% effective dose (ED50) in the series on Felis catus [6] worked out at 0.21 µmol/kg. The Max rev with Felis catus [9] is given as 109%. For the same compound, in the series with Felis catus [8], the HR is -12 delta %. On Acetylcholinesterase [3], this compound had a 50% effective concentration (EC50) of 1440 nM.
Take `COc1cc2c(cc1OC)C(=O)C(C(O)c1cc[n+](Cc3ccccc3)cc1)C2` (configuration not stated): a half-maximal effect at Acetylcholinesterase [3] (EC50) was put at 1880 nM.
Consider `COc1cc2c(cc1OC)C(=O)C(CC1CCN(Cc3ccccc3)CC1)C2` (configuration not stated) [DONEPEZIL], for which, in the series on Felis catus [4], the MAP is on record as -12 delta %. The compound further registered a Vagus with Felis catus [5] of 14 delta %. In addition, the ED50 with Felis catus [6] was found to be 0.53 µmol/kg. Moreover, the Max rev in the series with Felis catus [7] is 106%. In addition, in the series with Felis catus [8], the HR was -12 delta %.
On to `CC1=C[C@H]2Cc3[nH]c(=O)ccc3[C@]3(C1)NCCC[C@H]23` [HUPERZINE B], for which the concentration for half-maximal inhibition (IC50) on Acetylcholinesterase [10] worked out at 30 nM. In the series on Felis catus [4], the MAP is recorded as -17 delta %. Further, the Vagus in the series with Felis catus [5] came to 102 delta %. For the same compound, in the series with Felis catus [6], the ED50 amounted to 0.08 µmol/kg. Besides, in the series with Felis catus [7], the Max rev is recorded as 156%. The HR in the series with Felis catus [8] is on record as -8 delta %. The same compound came in with a half-maximal effective concentration (EC50) at Acetylcholinesterase [3] of 19 nM.
Regarding `O=C(CCC1CCN(Cc2ccccc2)CC1)c1ccc2c(c1)NCCCC2` [ZANAPEZIL], the MAP with Felis catus [4] is given as -11 delta %. The same compound registered a Vagus in the series with Felis catus [5] of 8 delta %. Moreover, the median effective dose (ED50) with Felis catus [6] worked out at 3.7 µmol/kg. Also, in the series with Felis catus [7], the Max rev is listed as 68%. The HR in the series on Felis catus [8] was -5 delta %.
